{
  "source": "patent US20020038064A1",
  "about": "“Colorless petroleum marker dyes” (priority 2000, published 2002)",
  "experiment": "Water extraction test of 10 ppm marker solution in kerosene",
  "assay_type": "physicochemical",
  "conditions": "10 mL of 10 ppm solution in kerosene stirred with 10 mL water for ½ hour; layers separated, 2 mL developer added to each layer",
  "method": "A marker solution was prepared by dissolving a 100 mg portion of the residue in xylenes (100 mL), and diluting 1 mL of the resulting solution to 100 mL with kerosene to make a 10 ppm solution.\nA developer was made by dissolving 1 g of a 40% solution of benzyltrimethylammonium hydroxide in methanol in 99 g of 2-ethyl-1-hexanol. To a 10 mL portion of the 10 ppm marker solution prepared above was added 2.5 mL of the developer. […] If necessary, quantitative determination of the marker concentration can be accomplished by measuring the absorbance of the solution at a wavelength of 581 nm.\nA 10 mL portion of the 10 ppm solution prepared above was stirred with 10 mL of water for ½ hour and the layers were separated. […] Addition of 2 mL of developer solution to the water layer gave no color.",
  "data": [
    {"smiles": "CCCC(=O)Oc1ccc(C2(c3ccc(OC(=O)CCC)c(C)c3)OC(=O)c3ccccc32)cc1C", "note": "[Example 1, Di-n-Butyl Ester of o-Cresolphthalein]", "values": [
      {"measurement": "extraction of the marker into the water layer", "result": "not extracted into the water layer"}
    ]}
  ]
}
